Experimental data taken from ChEMBL document CHEMBL1130169, “Validation of EGSITE2, a mixed integer program for deducing objective site models for experimental binding data” (J Med Chem, 1997).

The compounds below were run against T1, Sex hormone-binding globulin (Homo sapiens) (UniProt P04278).
T1 sequence (whole entry): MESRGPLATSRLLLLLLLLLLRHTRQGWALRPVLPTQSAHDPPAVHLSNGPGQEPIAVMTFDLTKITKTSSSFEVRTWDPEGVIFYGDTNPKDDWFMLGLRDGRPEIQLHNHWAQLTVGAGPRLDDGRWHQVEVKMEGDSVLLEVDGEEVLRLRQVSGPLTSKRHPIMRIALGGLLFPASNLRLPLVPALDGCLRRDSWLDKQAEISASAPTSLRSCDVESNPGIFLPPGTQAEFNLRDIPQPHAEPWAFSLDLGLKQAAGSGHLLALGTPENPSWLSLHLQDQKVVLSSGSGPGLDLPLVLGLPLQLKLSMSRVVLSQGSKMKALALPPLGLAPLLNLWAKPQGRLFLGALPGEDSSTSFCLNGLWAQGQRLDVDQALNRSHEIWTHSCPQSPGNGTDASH
Description: Binding affinity towards human testosterone binding globulin.

SMILES | -Log Kdiss
C[C@]12CCC3C(CC[C@@H]4CC(O)=CC[C@]34C)C1CCC2=O (some centres undefined) | 5.15
C[C@]12CC[C@H]3[C@@H](CCC4=CC(=O)CC[C@@]43C)[C@@H]1CC[C@@H]2O | 8.2
CC(=O)[C@@]1(O)CC[C@H]2[C@@H]3CCC4=CC(=O)CC[C@]4(C)[C@H]3CC[C@@]21C | 6
CC(=O)[C@@]1(O)CC[C@H]2[C@@H]3CC=C4C[C@@H](O)CC[C@]4(C)[C@H]3CC[C@@]21C | 5.36
C[C@]12CCC(=O)C[C@@H]1CC[C@@H]1[C@@H]2CC[C@]2(C)[C@@H](O)CC[C@@H]12 | 8.74
C[C@]12CC[C@H]3[C@@H](CCC4=CC(=O)CC[C@@]43C)[C@@H]1CC[C@@H]2C(=O)CO | 6.38
C[C@]12CC[C@@H](O)C[C@@H]1CC[C@@H]1[C@@H]2CC[C@]2(C)C(=O)CC[C@@H]12 | 6.15
CC(=O)[C@H]1CC[C@H]2[C@@H]3CCC4=CC(=O)CC[C@]4(C)[C@H]3CC[C@]12C | 5.94
CC(=O)[C@H]1CC[C@H]2[C@@H]3CC=C4C[C@@H](O)CC[C@]4(C)[C@H]3CC[C@]12C | 6.15
C[C@]12CCC(=O)C=C1CC[C@@H]1[C@@H]2C(=O)C[C@@]2(C)[C@H]1CC[C@]2(O)C(=O)CO | 5.43
C[C@]12CCC(=O)C=C1CCC1C3CC[C@H](C(=O)CO)[C@@]34C[C@H](OC4O)C12 (some centres undefined) | 4.32
C[C@]12CC[C@@H]3c4ccc(O)cc4CCC3[C@@H]1CCC2=O (single isomer, unassigned) | 7.18
C[C@]12CC[C@H](O)C[C@@H]1CC[C@@H]1[C@@H]2CC[C@]2(C)[C@@H](O)CC[C@@H]12 | 8.11
C[C@]12CCC(=O)C=C1CC[C@@H]1[C@@H]2CC[C@@]2(C)[C@H]1CC[C@]2(O)C(=O)CO | 6.2
C[C@]12C[C@H](O)[C@H]3[C@@H](CCC4=CC(=O)CC[C@@]43C)[C@@H]1CC[C@@H]2C(=O)CO | 5.34
C[C@]12CC[C@@H]3c4ccc(O)cc4CC[C@H]3[C@@H]1C[C@@H](O)[C@@H]2O | 5.63
C[C@]12CC[C@H](O)CC1=CCC1C2CC[C@]2(C)C(=O)CCC12 (some centres undefined) | 6.82
C[C@]12CCC(=O)C=C1CC[C@@H]1[C@@H]2CC[C@]2(C)C(=O)CC[C@@H]12 | 6.46
C[C@]12CCC(=O)C=C1CC[C@@H]1[C@@H]2[C@@H](O)C[C@@]2(C)[C@H]1CC[C@]2(O)C(=O)CO | 5.2
